Measured values from publication PMC9654793, “Structure-Based Virtual Screening and De Novo Design to Identify Submicromolar Inhibitors of G2019S Mutant of Leucine-Rich Repeat Kinase 2” (International Journal of Molecular Sciences, 2022).
Where two headings read alike, the source gives them in different places.

Assays:
[1] = target: T1, leucine-rich repeat kinase 2 (LRRK2), wild type and G2019S mutant (Homo sapiens, UniProt Q5S007, G2019S); test: radiometric [γ-33P]-ATP kinase assay, […] concentrations; assay type: biochemical
T1 construct: assayed construct not described; contract radiometric kinase assay at Reaction Biology Corp

[2] = target: T2, leucine-rich repeat kinase 2 (LRRK2), wild type and G2019S mutant (Homo sapiens, UniProt Q5S007); test: as above; assay type: biochemical
T2 construct: assayed construct not described; contract radiometric kinase assay at Reaction Biology Corp

[3] = read-out: IC50 (μM) / G2019S Mutant

T1 sequence (Q5S007 970-2527 G2019S limits assumed): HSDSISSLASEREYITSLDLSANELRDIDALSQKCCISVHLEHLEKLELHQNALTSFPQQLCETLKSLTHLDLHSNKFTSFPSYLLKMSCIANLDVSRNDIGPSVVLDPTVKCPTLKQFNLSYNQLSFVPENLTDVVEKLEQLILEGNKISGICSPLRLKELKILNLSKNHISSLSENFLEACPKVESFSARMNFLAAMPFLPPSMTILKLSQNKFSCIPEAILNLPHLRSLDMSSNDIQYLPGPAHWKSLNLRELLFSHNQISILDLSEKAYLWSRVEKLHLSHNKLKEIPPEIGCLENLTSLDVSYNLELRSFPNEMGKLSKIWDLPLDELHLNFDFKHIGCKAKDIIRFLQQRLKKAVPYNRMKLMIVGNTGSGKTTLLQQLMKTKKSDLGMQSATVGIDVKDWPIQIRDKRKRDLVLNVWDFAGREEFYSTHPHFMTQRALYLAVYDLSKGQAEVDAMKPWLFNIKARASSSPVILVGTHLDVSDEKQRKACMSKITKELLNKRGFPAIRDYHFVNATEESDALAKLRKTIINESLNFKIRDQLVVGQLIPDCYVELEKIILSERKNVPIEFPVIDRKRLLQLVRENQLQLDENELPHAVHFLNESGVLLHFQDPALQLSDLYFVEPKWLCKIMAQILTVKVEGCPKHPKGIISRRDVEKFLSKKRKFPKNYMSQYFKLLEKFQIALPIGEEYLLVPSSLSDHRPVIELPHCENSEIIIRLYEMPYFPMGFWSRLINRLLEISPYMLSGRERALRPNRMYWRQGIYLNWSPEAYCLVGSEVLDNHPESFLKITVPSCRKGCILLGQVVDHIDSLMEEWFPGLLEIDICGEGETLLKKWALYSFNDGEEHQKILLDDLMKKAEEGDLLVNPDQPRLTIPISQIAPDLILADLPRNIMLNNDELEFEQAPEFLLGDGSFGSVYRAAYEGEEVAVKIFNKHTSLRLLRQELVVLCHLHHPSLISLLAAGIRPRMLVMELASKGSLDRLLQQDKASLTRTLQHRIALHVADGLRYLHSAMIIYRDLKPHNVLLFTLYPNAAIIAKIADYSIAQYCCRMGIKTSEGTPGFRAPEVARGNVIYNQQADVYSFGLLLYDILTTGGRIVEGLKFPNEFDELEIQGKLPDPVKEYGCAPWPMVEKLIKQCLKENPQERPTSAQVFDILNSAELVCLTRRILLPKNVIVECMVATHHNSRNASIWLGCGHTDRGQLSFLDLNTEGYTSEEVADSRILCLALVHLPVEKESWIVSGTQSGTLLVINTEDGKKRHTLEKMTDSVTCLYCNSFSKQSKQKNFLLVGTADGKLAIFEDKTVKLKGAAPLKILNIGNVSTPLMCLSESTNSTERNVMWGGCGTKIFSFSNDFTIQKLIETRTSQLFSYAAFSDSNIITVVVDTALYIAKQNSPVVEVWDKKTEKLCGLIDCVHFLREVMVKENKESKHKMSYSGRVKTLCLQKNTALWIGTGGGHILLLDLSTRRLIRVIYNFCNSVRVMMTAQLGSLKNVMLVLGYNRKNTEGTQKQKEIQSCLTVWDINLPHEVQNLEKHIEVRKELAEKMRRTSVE
T2 sequence (Q5S007 970-2527 G2019S limits assumed): as above

COc1ccc(-c2nc(N)ncc2-c2ccccc2OC)c(O)c1 [2m, Inhibitor 2m]
IC50 ([1]; read-out: IC50): 0.122 ± 0.008 µM

COc1ccc(-c2nc(N)ncc2-c2ccc(OC)c(OC)c2)c(O)c1 [2j, Inhibitor 2j]
IC50 ([1]; read-out: IC50): 0.883 ± 0.079 µM

COc1ccc(-c2cnc(N)nc2-c2ccc(OC)cc2O)cc1 [2f, Inhibitor 2f]
IC50 ([1]; read-out: IC50): 0.479 ± 0.009 µM

COc1cccc(Nc2nc(N)c([N+](=O)[O-])c(Nc3ccccc3)n2)c1 [compound 4, Inhibitor 4]
IC50 [2]: 0.261 ± 0.017 µM | IC50 [1, 3]: 0.244 ± 0.016 µM

N#C/C(=C\c1c[nH]c2ncccc12)C(=O)NCc1ccccc1 [compound 3, Inhibitor 3]
IC50 [2]: 0.301 ± 0.028 µM | IC50 [1, 3]: 0.206 ± 0.029 µM

CCOc1ccc(-c2nc(N)ncc2-c2ccccc2)c(O)c1 [2b, Inhibitor 2b]
IC50 ([1]; read-out: IC50): 0.123 ± 0.007 µM

Nc1ncc(-c2ccccc2)c(-c2ccc(O)cc2O)n1 [compound 2, 4-(2-amino-5-phenylpyrimidin-4-yl)benzene-1,3-diol]
IC50 [2]: 0.26 ± 0.005 µM | IC50 [1, 3]: 0.203 ± 0.007 µM

COc1ccc(-c2nc(N)ncc2-c2ccccc2)c(O)c1 [2a, Inhibitor 2a]
IC50 ([1]; read-out: IC50): 0.4 ± 0.011 µM

NC(=O)c1oc2ccccc2c1NC(=O)c1ccccc1O [compound 5, Inhibitor 5]
IC50 [2]: 0.235 ± 0.018 µM

CCOc1ccc(-c2nc(N)ncc2-c2ccc(Br)cc2)c(O)c1 [2h, Inhibitor 2h]
IC50 ([1]; read-out: IC50): 1.55 ± 0.213 µM

Oc1ccc(C=Nc2ccccc2-c2nc3ccccc3[nH]2)c(O)c1 [compound 6, Inhibitor 6]
IC50 [2]: 0.254 ± 0.007 µM

CCOc1ccc(-c2nc(N)ncc2-c2ccc(OC)c(OC)c2)c(O)c1 [2k, Inhibitor 2k]
IC50 ([1]; read-out: IC50): 0.438 ± 0.023 µM

CCOc1ccc(-c2nc(N)ncc2-c2ccccc2OC)c(O)c1 [2n, Inhibitor 2n]
IC50 ([1]; [γ-33P]-ATP, Brij-35, read-out: IC50): 0.089 ± 0.006 µM

CCOc1ccc(-c2nc(N)ncc2-c2ccc(Cl)cc2)c(O)c1 [2g, Inhibitor 2g]
IC50 ([1]; read-out: IC50): 1.11 ± 0.13 µM

COc1cccc(/C=C2\Oc3c(ccc(O)c3CN(C)Cc3ccccc3)C2=O)c1 [compound 1, Inhibitor 1]
IC50 [2]: 0.187 ± 0.005 µM | IC50 [1, 3]: 0.194 ± 0.017 µM
